From ChEMBL document CHEMBL3217633, “Simplified platensimycin analogues as antibacterial agents” (2012)
In brackets after ≈: the same amount, converted by molar mass. Activity calls are given as the source filed them. No cut-off for these calls is given here.

Columns and labels:
Staphylococcus aureus [1] = assay: Antimicrobial activity against methicillin-resistant Staphylococcus aureus ATCC 43300 at 10 ug/disc after 24 hrs by disc diffusion assay; assay type: functional; details: ATCC 43300, 24 h, read-out: DIZ
Staphylococcus aureus [2] = assay: Antimicrobial activity against methicillin-resistant Staphylococcus aureus ATCC 43300 at 1 mg/disc after 24 hrs by disc diffusion assay; assay type: functional
Klebsiella pneumoniae = assay: Antimicrobial activity against Klebsiella pneumoniae ATCC 13883; assay type: functional, organism-based
Pseudomonas aeruginosa = assay: Antimicrobial activity against Pseudomonas aeruginosa ATCC 27853; assay type: functional, organism-based
Staphylococcus aureus [3] = assay: Antimicrobial activity against methicillin-resistant Staphylococcus aureus ATCC 43300 after 24 hrs by broth microdilution method; assay type: functional; details: ATCC 43300, 24 h
Staphylococcus aureus [4] = assay: Antimicrobial activity against heterogeneous vancomycin-intermediate Staphylococcus aureus ATCC 700698 after 24 hrs by broth microdilution method; assay type: functional; details: ATCC 700698, 24 h
Acinetobacter baumannii = assay: Antimicrobial activity against Acinetobacter baumannii ATCC 19606; assay type: functional
Staphylococcus aureus [5] = assay: Antimicrobial activity against vancomycin-intermediate Staphylococcus aureus ATCC 700699 after 24 hrs by broth microdilution method; assay type: functional; details: ATCC 700699, 24 h

| Structure (SMILES) | zone of inhibition at 10 µg/disc (Staphylococcus aureus [1]) [mm] | diameter of the inhibition zone (DIZ) (Staphylococcus aureus [2]) [mm] | also measured |
| --- | --- | --- | --- |
| CCC(=O)Nc1cccc(C(=O)O)c1O | 0 | – | – |
| O=C(O)c1ccc(O)c(NC(=O)C2CCCC2)c1O | 0 | 8 | – |
| CC(C)(C)C(=O)Nc1cccc(C(=O)O)c1O | 0 | – | – |
| CC12CC[C@](C(=O)Nc3cccc(C(=O)O)c3O)(OC1=O)C2(C)C | 0 | 14 | – |
| CC12CC[C@](C(=O)Nc3c(O)ccc(C(=O)O)c3O)(OC1=O)C2(C)C | 18 | 38 | – |
| CCCC(=O)Nc1c(O)ccc(C(=O)O)c1O | 0 | 20 | – |
| CC12C[C@@]34C=CC(=O)[C@@](C)(CCC(=O)Nc5c(O)ccc(C(=O)O)c5O)C3[C@H](CC1C4)O2 (stereo partly drawn) [PLATENSIMYCIN] | 30 | – | Activity (Klebsiella pneumoniae): inactive; Activity (Pseudomonas aeruginosa): inactive; MIC (Staphylococcus aureus [3]): 2 µg/mL (≈ 4.53 µM); MIC (Staphylococcus aureus [4]): 2 µg/mL (≈ 4.53 µM); Activity (Acinetobacter baumannii): inactive; MIC (Staphylococcus aureus [5]): 2 µg/mL (≈ 4.53 µM) |
| O=C(O)c1cccc(NC(=O)C2CCCC2)c1O | 0 | – | – |
| CCCC(=O)Nc1cccc(C(=O)O)c1O | 0 | – | – |
| CC(C)C(=O)Nc1c(O)ccc(C(=O)O)c1O | 0 | – | – |
| O=C(O)c1ccc(O)c(NC(=O)C23CC4CC(CC(C4)C2)C3)c1O | 0 | 11 | – |
| CC(C)(C)C(=O)Nc1c(O)ccc(C(=O)O)c1O | 0 | – | – |
| O=C(O)c1cccc(NC(=O)C2CCCCC2)c1O | 0 | – | – |
| CC(=O)NC[C@H]1CN(c2ccc(N3CCOCC3)c(F)c2)C(=O)O1 [LINEZOLID] | 26 | – | – |
| O=C(O)c1cccc(NC(=O)C23CC4CC(CC(C4)C2)C3)c1O | 0 | 11 | – |
| CC12CC[C@@](C(=O)Nc3cccc(C(=O)O)c3O)(OC1=O)C2(C)C | 0 | 21 | – |
| CCC(=O)Nc1c(O)ccc(C(=O)O)c1O | 0 | – | – |
| CCC1(C(=O)Nc2c(O)ccc(C(=O)O)c2O)CCCCC1 | 0 | 10 | – |
| CC(C)C(=O)Nc1cccc(C(=O)O)c1O | 0 | – | – |
| CCC1(C(=O)Nc2cccc(C(=O)O)c2O)CCCCC1 | 0 | 10 | – |
| O=C(O)c1ccc(O)c(NC(=O)C2CCCCC2)c1O | 0 | – | – |
| CC12CC[C@@](C(=O)Nc3c(O)ccc(C(=O)O)c3O)(OC1=O)C2(C)C | 0 | 22 | – |
